Experimental data from ChEMBL document CHEMBL1909046, “DrugMatrix in vitro pharmacology data”.

Experiments:
[1] = molecular target: 5-hydroxytryptamine receptor 2B (Homo sapiens, UniProt P41595); assay type: cell membranes, CHO-K1, Membrane; also: in other assays of this panel Not Active means under 50% inhibition at 10 µM
[2] = molecular target: C-C chemokine receptor type 2 (Homo sapiens, UniProt P41597); assay type: cell membranes, CHO-K1, Membrane; conditions: cho-k1; also: in other assays of this panel Not Active means under 50% inhibition at 10 µM
[3] = molecular target: D(1A) dopamine receptor (Homo sapiens, UniProt P21728); experiment: DRUGMATRIX: Dopamine D1 radioligand binding (ligand: [3H] SCH-23390); assay type: cell membranes, Membrane; conditions: cho; Not Active = under 50% inhibition at 10 µM
[4] = molecular target: Mu-type opioid receptor (Homo sapiens, UniProt P35372); experiment: DRUGMATRIX: Opiate mu (OP3, MOP) radioligand binding (ligand: [3H] Diprenorphine); assay type: cell membranes, CHO-K1, Membrane; conditions: cho-k1; Not Active = under 50% inhibition at 10 µM
[5] = DRUGMATRIX: Phosphodiesterase PDE4 enzyme inhibition (substrate: [3H]cAMP + cAMP); conditions: u-937; Not Active = under 50% inhibition at 10 µM
[6] = molecular target: T1, Adenosine receptor A1 (Homo sapiens, UniProt P30542); assay type: cell membranes, Membrane; conditions: cho;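 also: radioligand binding assay at the adenosine A1 receptor, with DPCPX serving as the labelled ligand; in other assays of this panel Not Active means under 50% inhibition at 10 µM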
T1 sequence (P30542 whole entry): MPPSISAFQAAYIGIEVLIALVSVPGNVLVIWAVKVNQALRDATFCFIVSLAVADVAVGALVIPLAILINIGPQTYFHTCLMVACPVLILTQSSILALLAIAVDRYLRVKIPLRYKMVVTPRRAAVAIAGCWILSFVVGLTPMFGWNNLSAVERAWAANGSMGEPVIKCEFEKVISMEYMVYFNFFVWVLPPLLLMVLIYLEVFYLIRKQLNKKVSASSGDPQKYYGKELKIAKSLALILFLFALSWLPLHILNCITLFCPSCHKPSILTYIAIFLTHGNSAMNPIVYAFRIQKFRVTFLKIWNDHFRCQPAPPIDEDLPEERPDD

[7] = molecular target: Cytochrome P450 2D6 (Homo sapiens, UniProt P10635); conditions: bti-tn-5b1-4; also: in other assays of this panel Not Active means under 50% inhibition at 10 µM
Cytochrome P450 2D6, sequence (P10635 whole entry): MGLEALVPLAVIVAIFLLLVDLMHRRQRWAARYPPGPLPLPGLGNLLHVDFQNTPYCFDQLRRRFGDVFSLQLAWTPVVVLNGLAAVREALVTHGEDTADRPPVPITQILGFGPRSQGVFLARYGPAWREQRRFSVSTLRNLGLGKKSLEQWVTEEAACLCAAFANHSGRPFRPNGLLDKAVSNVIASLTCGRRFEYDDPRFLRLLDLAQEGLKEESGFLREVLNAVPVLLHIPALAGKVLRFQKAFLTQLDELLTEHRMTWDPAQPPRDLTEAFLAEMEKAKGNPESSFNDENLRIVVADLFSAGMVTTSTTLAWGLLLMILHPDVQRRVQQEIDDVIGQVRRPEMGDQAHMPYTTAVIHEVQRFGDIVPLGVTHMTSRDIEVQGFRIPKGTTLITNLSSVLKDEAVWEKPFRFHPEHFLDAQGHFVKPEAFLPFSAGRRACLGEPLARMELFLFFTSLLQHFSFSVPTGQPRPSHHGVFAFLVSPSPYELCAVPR

D(1A) dopamine receptor, sequence (P21728 whole entry): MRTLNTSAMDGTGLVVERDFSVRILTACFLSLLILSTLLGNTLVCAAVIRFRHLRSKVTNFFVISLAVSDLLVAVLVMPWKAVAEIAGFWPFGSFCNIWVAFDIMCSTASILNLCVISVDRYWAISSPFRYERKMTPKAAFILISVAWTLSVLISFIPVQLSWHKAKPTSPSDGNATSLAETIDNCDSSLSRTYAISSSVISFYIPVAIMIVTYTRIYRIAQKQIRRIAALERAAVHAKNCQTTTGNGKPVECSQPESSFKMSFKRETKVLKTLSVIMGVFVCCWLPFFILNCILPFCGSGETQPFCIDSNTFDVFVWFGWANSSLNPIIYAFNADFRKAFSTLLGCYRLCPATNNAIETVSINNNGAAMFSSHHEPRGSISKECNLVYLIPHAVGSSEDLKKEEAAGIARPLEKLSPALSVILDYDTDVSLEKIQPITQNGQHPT
5-hydroxytryptamine receptor 2B, sequence (P41595 whole entry): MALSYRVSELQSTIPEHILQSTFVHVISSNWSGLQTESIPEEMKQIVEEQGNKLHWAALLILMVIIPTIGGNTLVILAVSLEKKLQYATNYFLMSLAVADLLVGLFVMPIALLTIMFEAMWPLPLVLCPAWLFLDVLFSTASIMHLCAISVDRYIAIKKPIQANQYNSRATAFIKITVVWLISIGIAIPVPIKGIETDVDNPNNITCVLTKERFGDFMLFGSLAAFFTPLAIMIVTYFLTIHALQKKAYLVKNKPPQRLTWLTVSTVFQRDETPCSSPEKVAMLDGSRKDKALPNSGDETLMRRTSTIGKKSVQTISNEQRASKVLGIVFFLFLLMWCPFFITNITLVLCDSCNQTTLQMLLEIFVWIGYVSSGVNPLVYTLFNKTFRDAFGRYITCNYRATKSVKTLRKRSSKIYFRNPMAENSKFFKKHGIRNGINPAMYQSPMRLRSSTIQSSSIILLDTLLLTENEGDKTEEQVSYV
Mu-type opioid receptor, sequence (P35372 whole entry): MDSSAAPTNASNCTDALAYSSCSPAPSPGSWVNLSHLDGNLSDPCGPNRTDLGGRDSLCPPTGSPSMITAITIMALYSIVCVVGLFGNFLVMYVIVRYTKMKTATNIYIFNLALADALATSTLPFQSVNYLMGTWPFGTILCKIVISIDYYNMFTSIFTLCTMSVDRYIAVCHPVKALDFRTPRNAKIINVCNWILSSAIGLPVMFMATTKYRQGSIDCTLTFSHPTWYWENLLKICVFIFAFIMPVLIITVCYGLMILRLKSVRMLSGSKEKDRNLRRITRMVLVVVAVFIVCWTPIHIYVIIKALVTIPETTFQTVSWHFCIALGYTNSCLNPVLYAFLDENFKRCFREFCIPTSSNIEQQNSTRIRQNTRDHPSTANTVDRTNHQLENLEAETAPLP
C-C chemokine receptor type 2, sequence (P41597 whole entry): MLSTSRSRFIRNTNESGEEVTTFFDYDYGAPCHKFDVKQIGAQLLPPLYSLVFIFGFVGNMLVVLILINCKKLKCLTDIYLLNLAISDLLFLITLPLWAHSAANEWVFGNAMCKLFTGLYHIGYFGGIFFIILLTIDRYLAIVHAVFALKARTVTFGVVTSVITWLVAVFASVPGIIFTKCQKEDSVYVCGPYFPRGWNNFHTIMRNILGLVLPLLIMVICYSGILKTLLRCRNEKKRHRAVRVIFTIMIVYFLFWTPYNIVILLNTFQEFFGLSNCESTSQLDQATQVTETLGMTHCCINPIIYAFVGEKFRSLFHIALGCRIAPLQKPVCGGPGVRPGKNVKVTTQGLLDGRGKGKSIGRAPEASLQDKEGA

| SMILES | IC50 ([1]; cho-k1) | IC50 [2] | IC50 [3] | IC50 [4] | IC50 [5] | Ki [5] | IC50 [6] | IC50 [7] | Ki [7] | IC50 ([1]; read-out: IC50) [µM] | Ki ([1]; read-out: Ki) [µM] |
| --- | --- | --- | --- | --- | --- | --- | --- | --- | --- | --- | --- |
| CCc1c2c(nc3ccc(OC(=O)N4CCC(N5CCCCC5)CC4)cc13)-c1cc3c(c(=O)n1C2)COC(=O)[C@]3(O)CC [IRINOTECAN] | Not Active | Not Active | Not Active | Not Active | Not Active | Not Active | Not Active | Not Active | Not Active | – | – |
| CC(C(=O)O)c1cccc(C(=O)c2ccccc2)c1 (configuration not stated) [KETOPROFEN] | Not Active | Not Active | Not Active | Not Active | Not Active | Not Active | Not Active | Not Active | Not Active | – | – |
| Nc1ccn([C@@H]2CS[C@H](CO)O2)c(=O)n1 [LAMIVUDINE] | Not Active | Not Active | Not Active | Not Active | Not Active | Not Active | Not Active | Not Active | Not Active | – | – |
| O=S(=O)([O-])CCS.[Na+] [MESNA] | Not Active | Not Active | Not Active | Not Active | Not Active | Not Active | Not Active | Not Active | Not Active | – | – |
| C#C[C@]1(O)CC[C@H]2[C@@H]3CCc4cc(OC)ccc4[C@H]3CC[C@@]21C [MESTRANOL] | Not Active | Not Active | Not Active | Not Active | Not Active | Not Active | Not Active | Not Active | Not Active | – | – |
| CC(=O)Nc1cccc(O)c1 [METACETAMOL] | Not Active | Not Active | Not Active | Not Active | Not Active | Not Active | Not Active | Not Active | Not Active | – | – |
| Cc1ncc([N+](=O)[O-])n1CCO [METRONIDAZOLE] | Not Active | Not Active | Not Active | Not Active | Not Active | Not Active | Not Active | Not Active | Not Active | – | – |
| CC(C)(C(=O)c1cccnc1)c1cccnc1 [METYRAPONE] | Not Active | Not Active | Not Active | Not Active | Not Active | Not Active | Not Active | Not Active | Not Active | – | – |
| Oc1ccc(OCc2ccccc2)cc1 [MONOBENZONE] | Not Active | Not Active | Not Active | Not Active | Not Active | Not Active | Not Active | Not Active | Not Active | – | – |
| CC(C)(Oc1ccc(C2CCCc3ccccc32)cc1)C(=O)O (configuration not stated) [NAFENOPIN] | Not Active | Not Active | Not Active | Not Active | Not Active | Not Active | Not Active | Not Active | Not Active | – | – |
| CC(C)[C@H]1CC[C@H](C(=O)N[C@H](Cc2ccccc2)C(=O)O)CC1 [NATEGLINIDE] | Not Active | Not Active | Not Active | Not Active | Not Active | Not Active | Not Active | Not Active | Not Active | – | – |
| CCN[C@@H]1C[C@H](N)[C@@H](O[C@H]2OC(CN)=CC[C@H]2N)[C@H](O)[C@H]1O[C@H]1OC[C@](C)(O)[C@H](NC)[C@H]1O [NETILMICIN] | Not Active | Not Active | Not Active | Not Active | Not Active | Not Active | Not Active | Not Active | Not Active | – | – |
| CCOC(=O)C1=C(C)NC(C)=C(C(=O)OC)C1c1cccc([N+](=O)[O-])c1 (configuration not stated) [NITRENDIPINE] | Not Active | Not Active | Not Active | Not Active | Not Active | Not Active | Not Active | Not Active | Not Active | – | – |
| C#C[C@]1(OC(C)=O)CC[C@H]2[C@@H]3CCC4=CC(=O)CC[C@@H]4[C@H]3CC[C@@]21C [NORETHINDRONE ACETATE] | Not Active | Not Active | Not Active | Not Active | Not Active | Not Active | Not Active | Not Active | Not Active | – | – |
| COc1ccc2[nH]c([S+]([O-])Cc3ncc(C)c(OC)c3C)nc2c1 (configuration not stated) [OMEPRAZOLE] | Not Active | Not Active | Not Active | Not Active | Not Active | Not Active | Not Active | Not Active | Not Active | – | – |
| Cc1nccn1CC1CCc2c(c3ccccc3n2C)C1=O (configuration not stated) [ONDANSETRON] | – | Not Active | Not Active | Not Active | Not Active | Not Active | Not Active | Not Active | Not Active | 0.717 | 0.456 |
| CCCCOc1ccc(OCCCN2CCOCC2)cc1 [PRAMOXINE] | Not Active | Not Active | Not Active | Not Active | Not Active | Not Active | Not Active | Not Active | Not Active | – | – |
| O=C(C1CCCCC1)N1CC(=O)N2CCc3ccccc3C2C1 (configuration not stated) [PRAZIQUANTEL] | Not Active | Not Active | Not Active | Not Active | Not Active | Not Active | Not Active | Not Active | Not Active | – | – |
| CCN(CC)CCOC(=O)c1ccc(N)cc1 [PROCAINE] | Not Active | Not Active | Not Active | Not Active | Not Active | Not Active | Not Active | Not Active | Not Active | – | – |
| CCCN(CCC)C(=O)C(CCC(=O)O)NC(=O)c1ccccc1 (configuration not stated) [PROGLUMIDE] | Not Active | Not Active | Not Active | Not Active | Not Active | Not Active | Not Active | Not Active | Not Active | – | – |
| NC(=O)c1cnccn1 [PYRAZINAMIDE] | Not Active | Not Active | Not Active | Not Active | Not Active | Not Active | Not Active | Not Active | Not Active | – | – |
| Cc1cc2cc3c(C)cc(=O)oc3c(C)c2o1 [TRIOXSALEN] | Not Active | Not Active | Not Active | Not Active | Not Active | Not Active | Not Active | Not Active | Not Active | – | – |
| CCCC(CCC)C(=O)O [VALPROIC ACID] | Not Active | Not Active | Not Active | Not Active | Not Active | Not Active | Not Active | Not Active | Not Active | – | – |
| CCC1=C[C@@H]2CN(C1)Cc1c([nH]c3ccccc13)[C@@](C(=O)OC)(c1cc3c(cc1OC)N(C)[C@H]1[C@@](O)(C(=O)OC)[C@H](OC(C)=O)[C@]4(CC)C=CCN5CC[C@]31[C@@H]54)C2 [VINORELBINE] | Not Active | Not Active | Not Active | Not Active | Not Active | Not Active | Not Active | Not Active | Not Active | – | – |
